Experiment: mn = molality of the nth substance listed, in mol/kg
Details: 100 kPa, Liquid, Alternating current cell with electrodes

CCCCCCCCCC(=O)[O-].[Na+] [sodium decanoate] + O
electrical conductivity [S/m]
Details | 278.15 K | 288.15 K | 298.15 K | 308.15 K | 318.15 K | 328.15 K
m1 = 0.01638 | 0.0626 | 0.083 | 0.106 | 0.131 | 0.157 | 0.184
m1 = 0.03189 | 0.116 | 0.155 | 0.198 | 0.244 | 0.292 | 0.344
m1 = 0.04823 | 0.17 | 0.226 | 0.288 | 0.356 | 0.428 | 0.504
m1 = 0.06109 | 0.21 | 0.279 | 0.357 | 0.441 | 0.53 | 0.625
m1 = 0.07519 | 0.2524 | 0.336 | 0.429 | 0.531 | 0.639 | 0.753
m1 = 0.09179 | 0.3003 | 0.399 | 0.5112 | 0.632 | 0.7605 | 0.896
m1 = 0.1079 | 0.344 | 0.459 | 0.584 | 0.719 | 0.865 | 1.021
m1 = 0.1249 | 0.388 | 0.5125 | 0.647 | 0.795 | 0.958 | 1.135
m1 = 0.1434 | 0.429 | 0.559 | 0.705 | 0.869 | 1.05 | 1.25
m1 = 0.1608 | 0.46 | 0.599 | 0.758 | 0.936 | 1.134 | 1.35
m1 = 0.1798 | 0.489 | 0.6405 | 0.8135 | 1.008 | 1.224 | 1.46
m1 = 0.1991 | 0.519 | 0.6831 | 0.8715 | 1.08 | 1.316 | 1.57
m1 = 0.2177 | 0.547 | 0.724 | 0.927 | 1.15 | 1.405 | 1.68
m1 = 0.2366 | 0.576 | 0.766 | 0.984 | 1.228 | 1.5 | 1.78
m1 = 0.2557 | 0.605 | 0.809 | 1.043 | 1.303 | 1.59 | 1.89

CCCCCCCCCCCC(=O)[O-].[Na+] [sodium dodecanoate] + O
Details | electrical conductivity [S/m]
298.15 K, m1 = 0.01084 | 0.0726
298.15 K, m1 = 0.01211 | 0.0809
298.15 K, m1 = 0.01337 | 0.0892
298.15 K, m1 = 0.01462 | 0.0974
298.15 K, m1 = 0.01585 | 0.105
298.15 K, m1 = 0.01707 | 0.113
298.15 K, m1 = 0.01827 | 0.121
298.15 K, m1 = 0.01946 | 0.129
298.15 K, m1 = 0.02064 | 0.136
298.15 K, m1 = 0.0218 | 0.143
298.15 K, m1 = 0.02295 | 0.151
298.15 K, m1 = 0.02408 | 0.158
298.15 K, m1 = 0.0252 | 0.165
298.15 K, m1 = 0.02631 | 0.172
298.15 K, m1 = 0.02741 | 0.178
298.15 K, m1 = 0.02849 | 0.183
298.15 K, m1 = 0.02957 | 0.187
298.15 K, m1 = 0.03063 | 0.1909
298.15 K, m1 = 0.03168 | 0.194
298.15 K, m1 = 0.03271 | 0.198
298.15 K, m1 = 0.03374 | 0.201
298.15 K, m1 = 0.03476 | 0.204
298.15 K, m1 = 0.03576 | 0.207
298.15 K, m1 = 0.03675 | 0.2102
308.15 K, m1 = 0.01107 | 0.0928
308.15 K, m1 = 0.01239 | 0.103
308.15 K, m1 = 0.0137 | 0.114
308.15 K, m1 = 0.01499 | 0.125
308.15 K, m1 = 0.01626 | 0.135
308.15 K, m1 = 0.01752 | 0.145
308.15 K, m1 = 0.01876 | 0.155
308.15 K, m1 = 0.01999 | 0.165
308.15 K, m1 = 0.0212 | 0.175
308.15 K, m1 = 0.0224 | 0.185
308.15 K, m1 = 0.02359 | 0.194
308.15 K, m1 = 0.02476 | 0.203
308.15 K, m1 = 0.02591 | 0.212
308.15 K, m1 = 0.02706 | 0.219
308.15 K, m1 = 0.02819 | 0.225
308.15 K, m1 = 0.0293 | 0.231
308.15 K, m1 = 0.03041 | 0.236
308.15 K, m1 = 0.0315 | 0.2405
308.15 K, m1 = 0.03257 | 0.245
308.15 K, m1 = 0.03364 | 0.249
308.15 K, m1 = 0.0347 | 0.254
308.15 K, m1 = 0.03574 | 0.258
308.15 K, m1 = 0.03677 | 0.262
308.15 K, m1 = 0.03779 | 0.266
318.15 K, m1 = 0.01302 | 0.131
318.15 K, m1 = 0.01423 | 0.142
318.15 K, m1 = 0.01542 | 0.154
318.15 K, m1 = 0.0166 | 0.165
318.15 K, m1 = 0.01777 | 0.176
318.15 K, m1 = 0.01892 | 0.188
318.15 K, m1 = 0.02006 | 0.198
318.15 K, m1 = 0.02118 | 0.209
318.15 K, m1 = 0.02229 | 0.22
318.15 K, m1 = 0.02339 | 0.23
318.15 K, m1 = 0.02448 | 0.24
318.15 K, m1 = 0.02555 | 0.249
318.15 K, m1 = 0.02661 | 0.258
318.15 K, m1 = 0.02766 | 0.265
318.15 K, m1 = 0.0287 | 0.272
318.15 K, m1 = 0.02972 | 0.278
318.15 K, m1 = 0.03074 | 0.283
318.15 K, m1 = 0.03174 | 0.288
318.15 K, m1 = 0.03274 | 0.293
318.15 K, m1 = 0.03372 | 0.298
318.15 K, m1 = 0.03469 | 0.303
318.15 K, m1 = 0.03565 | 0.308
318.15 K, m1 = 0.0366 | 0.312
318.15 K, m1 = 0.03754 | 0.317
328.15 K, m1 = 0.01297 | 0.151
328.15 K, m1 = 0.01413 | 0.164
328.15 K, m1 = 0.01527 | 0.177
328.15 K, m1 = 0.01641 | 0.189
328.15 K, m1 = 0.01752 | 0.202
328.15 K, m1 = 0.01863 | 0.214
328.15 K, m1 = 0.01972 | 0.226
328.15 K, m1 = 0.0208 | 0.238
328.15 K, m1 = 0.02187 | 0.249
328.15 K, m1 = 0.02292 | 0.26
328.15 K, m1 = 0.02397 | 0.271
328.15 K, m1 = 0.025 | 0.282
328.15 K, m1 = 0.02602 | 0.293
328.15 K, m1 = 0.02703 | 0.303
328.15 K, m1 = 0.02802 | 0.311
328.15 K, m1 = 0.02901 | 0.319
328.15 K, m1 = 0.02999 | 0.326
328.15 K, m1 = 0.03095 | 0.332
328.15 K, m1 = 0.03191 | 0.338
328.15 K, m1 = 0.03285 | 0.344
328.15 K, m1 = 0.03379 | 0.35
328.15 K, m1 = 0.03471 | 0.355
328.15 K, m1 = 0.03563 | 0.36
328.15 K, m1 = 0.03653 | 0.366

CCCCCCCC(=O)[O-].[Na+] [sodium octanoate] + O
electrical conductivity [S/m]
Details | 278.15 K | 288.15 K | 298.15 K | 308.15 K | 318.15 K | 328.15 K
m1 = 0.04715 | 0.168 | 0.223 | 0.284 | 0.35 | 0.421 | 0.494
m1 = 0.0899 | 0.299 | 0.398 | 0.508 | 0.627 | 0.754 | 0.885
m1 = 0.132 | 0.416 | 0.555 | 0.709 | 0.876 | 1.06 | 1.242
m1 = 0.1699 | 0.5102 | 0.6723 | 0.856 | 1.06 | 1.28 | 1.522
m1 = 0.2149 | 0.606 | 0.797 | 1.02 | 1.27 | 1.538 | 1.845
m1 = 0.2635 | 0.6914 | 0.924 | 1.18 | 1.47 | 1.88 | 2.213
m1 = 0.3059 | – | 0.976 | 1.29 | 1.742 | 2.106 | 2.49
m1 = 0.3464 | – | 1.18 | 1.536 | 1.913 | 2.314 | 2.734
m1 = 0.3898 | – | 1.29 | 1.67 | 2.09 | 2.526 | 2.99
m1 = 0.4368 | 1.015 | 1.4 | 1.811 | 2.26 | 2.74 | 3.25
m1 = 0.4813 | 1.09 | 1.49 | 1.934 | 2.42 | 2.938 | 3.48
m1 = 0.5288 | 1.16 | 1.58 | 2.06 | 2.58 | 3.138 | 3.719
m1 = 0.5785 | 1.224 | 1.68 | 2.19 | 2.75 | 3.34 | 3.96
m1 = 0.63 | 1.29 | 1.77 | 2.317 | 2.912 | 3.545 | 4.205
m1 = 0.6829 | 1.35 | 1.87 | 2.45 | 3.08 | 3.75 | 4.448
m1 = 0.7337 | 1.412 | 1.96 | 2.57 | 3.236 | 3.94 | 4.68

Reference: the NIST ThermoML archive (doi:10.1016/j.jct.2014.12.011)
